Read-outs that look alike come from different tables or passages of the source.
Legend:
[1] = test system: polymorphonuclear leukocytes; details: in response to a stimulator of chemotaxis; cited from earlier work
PUMP-1 = PUMP-1 activity induced by 100 U/ml of IL-1; format: cell-based; details: IL-1 100 U/ml
Excerpt: Metalloproteases mediate tissue damage such as glomerular diseases of the kidney, joint destruction in arthritis, and lung destruction in emphysema, and play a role in tumor metastases. Three examples of metalloproteases include a 92 kD type V gelatinase induced by TNF, IL-1 and PDGF plus βFGF, a 72 kD type IV collagenase that is usually constitutive and induced by TNF or IL-1, and a stromelysin/PUMP-1 induced by TNF and IL-1. The inventive compounds can inhibit TNF or IL-1 induction of the 92 kD type V gelatinase inducable metalloprotease. Moreover, the inventive compounds can reduce PUMP-1 activity induced by 100 U/ml of IL-1. […] Accordingly, the inventive compounds prevent induction of certain metalloproteases induced by IL-1 or TNF and are not involved with constitutively produced proteases (e.g., 72 kD type IV collagenase) involved in normal tissue remodeling.

[2] = test system: ras-transformed NIH/3T3 cells
[3] = test system: generation of DAG and PA in ras-transformed NIH/3T3 cells; experiment: Serum-stimulated generation of DAG and PA in ras-transformed NIH/3T3 cells; format: cell-based; details: pretreatment of cells
Excerpt: For example, activating ras mutations result in increased generation of DAG on stimulation with mitogens, although the sources of DAG have differed between experimental systems. In nontransformed renal mesangial cells, IL-1 β stimulation increased PLA2 and LPAAT activation, resulting in generation of sn-2 unsaturated PA and subsequent hydrolysis to DAG by phosphatidate phosphohydrolase. The ras transformation in NIH/3T3 cells upregulates serum-stimulated generation of DAG and PA. The specific species of DAG that is stimulated by serum is dioleoyl and for PA are dilinoleoyl and dioleoyl. […] The inhibition occurs either through suppressing the generation of PA de novo from lysoPA, or through inhibition of one or both arms of the Lands cycle. […] Therefore, the ras transformation mediates an upregulation of PA through indirect stimulation of PLA2 and/or LPAAT activity.

LPAAT = experiment: Formation of remodeled PA through the PA/DAG pathway (in vitro); format: cell-based; details: high PTX concentrations
Excerpt: Even in the presence of PTX, cells continue to form PA through the action of PLD, and DAG is also formed through the action of phospholipase C on PC and PI. The latter pathway is not inhibited by the inventive compounds or PTX. In PTX-treated cells, DAG derived from remodeled and PLA-generated PA is diminished (e.g., 1,2-sn-dioleoyl DAG, 1-alkyl,2-linoleoyl DAG and 1-alkyl,2-docosahexaneolyl DAG). Therefore, the inventive compounds and PTX inhibit the formation of only a certain species of PA and DAG by selectively inhibiting a specific second messenger pathway that is only activated in cells by noxious stimuli, but is not used to signal normal cellular housekeeping functions.

[4] = test system: tumor necrosis factor (TNF); details: cited from earlier work
cerebral blood flow = details: in vivo; cited from earlier work

| SMILES | chemotaxis stimulation [1] | PUMP-1 activity, % of control levels (PUMP-1) [%] | cytotoxicity in ras-transformed cells [2] | inhibition of ras-transformed cells ([2]; vs parental cells) | inhibition of DAG/PA generation [3] | inhibition of formation of remodeled PA (LPAAT) | TNF levels ([4]; normal volunteers) | TNF levels ([4]; with GM-CSF, patients undergoing allogeneic bone marrow transplant) | cerebral blood flow (cerebral blood flow) |
| --- | --- | --- | --- | --- | --- | --- | --- | --- | --- |
| CC(=O)CCCCn1c(=O)c2c(ncn2C)n(C)c1=O [PTX, 1-(5-oxohexyl)-3,7-dimethylxanthine] | stimulate chemotaxis in polymorphonuclear leukocytes | 95 | not associated with significant cytotoxicity | inhibits ras-transformed NIH/3T3 cells more than parental cells | blocks generation of these phospholipid second messengers | blocks formation of remodeled PA through the PA/DAG pathway at high PTX concentrations | TNF levels were higher among PTX recipients | decrease tumor necrosis factor (TNF) levels | – |
| CC(O)CCCCn1c(=O)c2c(ncn2C)n(C)c1=O (stereo not shown) [M1, 1-(5-hydroxyhexyl)-3,7-dimethylxanthine] | stimulate chemotaxis in polymorphonuclear leukocytes | – | – | – | – | – | – | – | increasing cerebral blood flow |

Source: patent US5521315A, “Olefin substituted long chain compounds” (priority 1993, dated 1996)
